Assay [1] concerns the target T1, Fatty acid amide hydrolase (FAAH) (Rattus norvegicus, UniProt P97612).
T1 sequence (P97612 1-579): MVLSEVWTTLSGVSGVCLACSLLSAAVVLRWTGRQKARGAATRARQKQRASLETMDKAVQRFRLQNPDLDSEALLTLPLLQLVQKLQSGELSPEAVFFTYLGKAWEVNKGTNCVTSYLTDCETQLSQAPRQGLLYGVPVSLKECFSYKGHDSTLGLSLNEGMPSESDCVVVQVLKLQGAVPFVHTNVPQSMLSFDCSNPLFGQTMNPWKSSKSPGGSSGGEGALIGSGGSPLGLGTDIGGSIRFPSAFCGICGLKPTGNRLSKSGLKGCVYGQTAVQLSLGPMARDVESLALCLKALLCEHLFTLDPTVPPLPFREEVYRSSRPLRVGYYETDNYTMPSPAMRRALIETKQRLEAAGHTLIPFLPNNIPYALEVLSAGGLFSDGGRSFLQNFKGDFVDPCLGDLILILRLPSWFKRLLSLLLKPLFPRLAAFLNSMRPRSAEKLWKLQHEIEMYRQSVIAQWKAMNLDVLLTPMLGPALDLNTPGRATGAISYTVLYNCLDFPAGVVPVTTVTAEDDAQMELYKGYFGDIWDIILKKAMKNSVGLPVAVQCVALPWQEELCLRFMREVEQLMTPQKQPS
As to conditions: reference compound, historical value; cited from earlier work.

Assay [2] deals with T1, Fatty acid amide hydrolase (FAAH). As to the kind of experiment: Fatty acid amide hydrolase (FAAH) inhibition, quantitation of labelled ethanolamine. The class given is biochemical, Wistar Rat. As to conditions: reference compound, concurrent.

As usually defined, the pIC50 is the IC50 on a negative log10 scale, so that one unit is a factor of ten.

Molecules are shown by their SMILES. pIC50: −log10 of the molar value. Read-outs that look alike come from different tables or passages of the source.

On to `CCCCCCCC/C=C\CCCCCCCC(=O)C(F)(F)F` [Oleyl Trifluormethyl Ketone], for which the pIC50 in assay [1] was 7.54; in assay [2] (batch 144029) it was 7.63; in assay [2] (batch 144988), 7.45.

Values taken from patent publication US20080213415A1, “Treatment of Glaucoma and Diabetic Retinopathy with Morinda Citrifolia Enhanced Formulations” (priority 2007, published 2008).
